Test system: Human skin fibroblasts on collagen-coated surfaces
Assay type: cell-based
Conditions: 0.5 mg/ml peptide; serum-free DMEM; 60 minutes
Protocol: The incubations contained peptides at the concentrations indicated and cell spreading was measured after 60 minute Method: Falcon 35 mm tissue culture dishes were coated with collagen (Vitrogen 100; 50 ug/ml in DMEM) for 15 minutes at 37° C. and counter-coated for 15 minutes with 1 mg/ml heat denatured bovine serum albumin. Human skin fibroblasts in DMEM with peptides added at the concentrations indicated were incubated on the substrata for 60 minutes at 37°. The end of the incubations, the cells were fixed and projected cell surface areas were measured by superimposing the microscopic field on the digitizing tablet of a Zidas image analyzer. Data presented are averages±95% confidence limits based on measurement of 50-100 cells. See reference 21 for complete details.

SMILES: N=C(N)NCCC[C@H](NC(=O)CN)C(=O)NCC(=O)N[C@@H](CC(=O)O)C(=O)N[C@@H](CO)C(=O)N1CCC[C@H]1C(=O)O [GRGDSP, Gly--Arg--Gly--Asp--Ser--Pro]
- inhibition of cell spreading on collagen-coated surfaces: about 50%

Reference: patent US4957902A, “Peptide inhibitors of wound contraction” (Board of Regents, the University of Texas System, priority 1988, dated 1990)
